Experimental data published in ChEMBL document CHEMBL3576778, “Structure-Activity Relationship Studies of a Series of Semisynthetic Lipopeptides Leading to the Discovery of Surotomycin, a Novel Cyclic Lipopeptide Being Developed for the Treatment of Clostridium difficile-Associated Diarrhea” (J Med Chem, 2015).
≈ marks a conversion by molar mass, not a printed value.

Tests used:
Format in all cases: functional
[1] = test system: Enterococcus faecium; experiment: Antimicrobial activity against daptomycin-resistant Enterococcus faecium ATCC 6569 incubated anaerobically at 37 degC for 48 hrs by agar dilution method; settings: ATCC 6569, 48 h
[2] = test system: Enterococcus faecalis; experiment: Antimicrobial activity against daptomycin-resistant Enterococcus faecalis ATCC 49452 incubated anaerobically at 37 degC for 48 hrs by agar dilution method; settings: ATCC 49452, 48 h
[3] = test system: Clostridioides difficile; experiment: Antimicrobial activity against daptomycin-resistant Clostridium difficile NAP1 incubated anaerobically at 37 degC for 48 hrs by agar dilution method; settings: NAP1, 48 h
[4] = test system: Staphylococcus aureus; experiment: Antimicrobial activity against daptomycin-susceptible Staphylococcus aureus ATCC 29213 incubated anaerobically at 37 degC for 48 hrs by agar dilution method; settings: ATCC 29213, 48 h

CCCCCCCCCCC(=O)N[C@@H](Cc1c[nH]c2ccccc12)C(=O)N[C@@H](CC(N)=O)C(=O)N[C@@H](CC(=O)O)C(=O)N[C@@H]1C(=O)NCC(=O)N[C@@H](CCCN)C(=O)NC(CC(=O)O)C(=O)N[C@H](C)C(=O)N[C@@H](CC(=O)O)C(=O)NCC(=O)N[C@H](CO)C(=O)N[C@@H]([C@@H](C)CC(=O)O)C(=O)N[C@@H](CC(=O)c2ccccc2N)C(=O)O[C@@H]1C (single isomer, unassigned)
MIC [1]: > 32 µg/mL
MIC [2]: 32 µg/mL (≈ 19.6 µM)
MIC [3]: 4 µg/mL (≈ 2.45 µM)
MIC [4]: 2 µg/mL (≈ 1.22 µM)

CCCCCCCCCCCCC(=O)N[C@@H](Cc1c[nH]c2ccccc12)C(=O)N[C@@H](CC(N)=O)C(=O)N[C@@H](CC(=O)O)C(=O)N[C@@H]1C(=O)NCC(=O)N[C@@H](CCCN)C(=O)NC(CC(=O)O)C(=O)N[C@H](C)C(=O)N[C@@H](CC(=O)O)C(=O)NCC(=O)N[C@H](CO)C(=O)N[C@@H]([C@@H](C)CC(=O)O)C(=O)N[C@@H](CC(=O)c2ccccc2N)C(=O)O[C@@H]1C (single isomer, unassigned)
MIC [1]: 8 µg/mL (≈ 4.81 µM)
MIC [2]: 8 µg/mL (≈ 4.81 µM)
MIC [3]: 8 µg/mL (≈ 4.81 µM)
MIC [4]: 0.5 µg/mL (≈ 0.301 µM)

CCCCCCCCCCCCCC(=O)N[C@@H](Cc1c[nH]c2ccccc12)C(=O)N[C@@H](CC(N)=O)C(=O)N[C@@H](CC(=O)O)C(=O)N[C@@H]1C(=O)NCC(=O)N[C@@H](CCCN)C(=O)NC(CC(=O)O)C(=O)N[C@H](C)C(=O)N[C@@H](CC(=O)O)C(=O)NCC(=O)N[C@H](CO)C(=O)N[C@@H]([C@@H](C)CC(=O)O)C(=O)N[C@@H](CC(=O)c2ccccc2N)C(=O)O[C@@H]1C (single isomer, unassigned)
MIC [1]: 4 µg/mL (≈ 2.39 µM)
MIC [2]: 4 µg/mL (≈ 2.39 µM)
MIC [3]: 16 µg/mL (≈ 9.54 µM)
MIC [4]: 1 µg/mL (≈ 0.596 µM)

CCCCCCCCCCCCCCC(=O)N[C@@H](Cc1c[nH]c2ccccc12)C(=O)N[C@@H](CC(N)=O)C(=O)N[C@@H](CC(=O)O)C(=O)N[C@@H]1C(=O)NCC(=O)N[C@@H](CCCN)C(=O)NC(CC(=O)O)C(=O)N[C@H](C)C(=O)N[C@@H](CC(=O)O)C(=O)NCC(=O)N[C@H](CO)C(=O)N[C@@H]([C@@H](C)CC(=O)O)C(=O)N[C@@H](CC(=O)c2ccccc2N)C(=O)O[C@@H]1C (single isomer, unassigned)
MIC [1]: 4 µg/mL (≈ 2.37 µM)
MIC [2]: 4 µg/mL (≈ 2.37 µM)
MIC [3]: 16 µg/mL (≈ 9.46 µM)
MIC [4]: 1 µg/mL (≈ 0.591 µM)

CC(C)CCCCCCCCCC(=O)N[C@@H](Cc1c[nH]c2ccccc12)C(=O)N[C@@H](CC(N)=O)C(=O)N[C@@H](CC(=O)O)C(=O)N[C@@H]1C(=O)NCC(=O)N[C@@H](CCCN)C(=O)NC(CC(=O)O)C(=O)N[C@H](C)C(=O)N[C@@H](CC(=O)O)C(=O)NCC(=O)N[C@H](CO)C(=O)N[C@@H]([C@@H](C)CC(=O)O)C(=O)N[C@@H](CC(=O)c2ccccc2N)C(=O)O[C@@H]1C (single isomer, unassigned)
MIC [1]: 4 µg/mL (≈ 2.41 µM)
MIC [2]: > 32 µg/mL
MIC [3]: 1 µg/mL (≈ 0.601 µM)
MIC [4]: 0.25 µg/mL (≈ 0.15 µM)

CC(C)CCCCCCCCCCC(=O)N[C@@H](Cc1c[nH]c2ccccc12)C(=O)N[C@@H](CC(N)=O)C(=O)N[C@@H](CC(=O)O)C(=O)N[C@@H]1C(=O)NCC(=O)N[C@@H](CCCN)C(=O)NC(CC(=O)O)C(=O)N[C@H](C)C(=O)N[C@@H](CC(=O)O)C(=O)NCC(=O)N[C@H](CO)C(=O)N[C@@H]([C@@H](C)CC(=O)O)C(=O)N[C@@H](CC(=O)c2ccccc2N)C(=O)O[C@@H]1C (single isomer, unassigned)
MIC [1]: 4 µg/mL (≈ 2.39 µM)
MIC [2]: 16 µg/mL (≈ 9.54 µM)
MIC [3]: 1 µg/mL (≈ 0.596 µM)
MIC [4]: 0.125 µg/mL (≈ 0.0745 µM)

C[C@H]1NC(=O)C(CC(=O)O)NC(=O)[C@H](CCCN)NC(=O)CNC(=O)[C@@H](NC(=O)[C@H](CC(=O)O)NC(=O)[C@H](CC(N)=O)NC(=O)[C@H](Cc2c[nH]c3ccccc23)NC(=O)CCCCC2CCCCC2)[C@@H](C)OC(=O)[C@H](CC(=O)c2ccccc2N)NC(=O)[C@H]([C@@H](C)CC(=O)O)NC(=O)[C@@H](CO)NC(=O)CNC(=O)[C@H](CC(=O)O)NC1=O (single isomer, unassigned)
MIC [1]: 32 µg/mL (≈ 19.6 µM)
MIC [2]: > 32 µg/mL
MIC [3]: 4 µg/mL (≈ 2.45 µM)
MIC [4]: 1 µg/mL (≈ 0.612 µM)

C[C@H]1NC(=O)C(CC(=O)O)NC(=O)[C@H](CCCN)NC(=O)CNC(=O)[C@@H](NC(=O)[C@H](CC(=O)O)NC(=O)[C@H](CC(N)=O)NC(=O)[C@H](Cc2c[nH]c3ccccc23)NC(=O)CCCCCCC2CCCCC2)[C@@H](C)OC(=O)[C@H](CC(=O)c2ccccc2N)NC(=O)[C@H]([C@@H](C)CC(=O)O)NC(=O)[C@@H](CO)NC(=O)CNC(=O)[C@H](CC(=O)O)NC1=O (single isomer, unassigned)
MIC [1]: 8 µg/mL (≈ 4.82 µM)
MIC [2]: 16 µg/mL (≈ 9.63 µM)
MIC [3]: 1 µg/mL (≈ 0.602 µM)
MIC [4]: 0.5 µg/mL (≈ 0.301 µM)

C[C@H]1NC(=O)C(CC(=O)O)NC(=O)[C@H](CCCN)NC(=O)CNC(=O)[C@@H](NC(=O)[C@H](CC(=O)O)NC(=O)[C@H](CC(N)=O)NC(=O)[C@H](Cc2c[nH]c3ccccc23)NC(=O)CCCCCC2CCCCC2)[C@@H](C)OC(=O)[C@H](CC(=O)c2ccccc2N)NC(=O)[C@H]([C@@H](C)CC(=O)O)NC(=O)[C@@H](CO)NC(=O)CNC(=O)[C@H](CC(=O)O)NC1=O (single isomer, unassigned)
MIC [1]: 16 µg/mL (≈ 9.72 µM)
MIC [2]: > 32 µg/mL
MIC [3]: 2 µg/mL (≈ 1.21 µM)
MIC [4]: 1 µg/mL (≈ 0.607 µM)
